Test results taken from US20240325398A1, “COMBINATION THERAPIES” (Infinity Pharmaceuticals, Inc., priority 2014, published 2024).

Assays:
DOHH2 = assay: Compound 1 with dexamethasone, CellTiter-Glo viability 72 h, combination index; format: cell-based; settings: DOHH2
Procedure: The effects of Compound 1 with dexamethasone were examined in a panel of cell lines. Cells were cultured and assayed as follows. Compound 1 was serially diluted with cell culture medium and various DMSO concentrations. The top concentration of Compound 1 exposed to cells was 3 uM for cell lines other than WSU-NHL and DOHH2. For WSU-NHL and DOHH2 cell lines, the top concentration of Compound 1 exposed to the cells was 0.3 uM. Dexamethasone was serially diluted in culture media and phosphate buffered saline (PBS). The top concentration of dexamethasone used on cells was 3 uM. Cells were at least 73% viable and were counted and diluted for plating at a density of about 92,000 cell/mL, 130 uL cells per well in 96 well plates for SUDHL6, Karpas 422, SUDHL4, WSU-NHL, RL, and DOHH2 cell lines. The SUDHL10 cell line was plated at a density of about 46,000 cells/mL, 130 uL cells per well in 96 well plates.
Various concentrations of Compound 1 and various combinations of dexamethasone were added to various wells of cells. Single agents (Compound 1 or dexamethasone alone) were also added to some wells of cells. Cells were incubated with compounds for 72 hours. To assay for effects of the compounds on cell viability, a CellTiter-Glo® luminescent cell viability assay (commercially available) was used. To each plate of cells, 100 uL CellTiter-Glo reagent was added, incubated, and luminescence quantified using a […].
The results for cell line DOHH2 are depicted in FIG. 11 and Table 11. […] Table 11 depicts combination index (CI) values for different combinations of dexamethasone/Compound 1 concentrations.

KARPAS-422 = assay: Combination study, ATPLite 72 h, dose matrix (Synergy Score, CI50)
SU-DHL-4-epst = assay: as above

C[C@H](Nc1ncnc2[nH]cnc12)c1cc2cccc(Cl)c2c(=O)n1-c1ccccc1 [Compound 1, (S)-3-(1-((9H-purin-6-yl)amino)ethyl)-8-chloro-2-phenylisoquinolin-1(2H)-one]
combination index (CI) (DOHH2; Compound 1 11.11111 nM + Dexamethasone 333.3333 nM): A (A = 0.0001 to <0.3) | combination index (CI) (DOHH2; Compound 1 11.11111 nM + Dexamethasone 1000 nM): A (A = 0.0001 to <0.3) | combination index (CI) (DOHH2; Compound 1 11.11111 nM + Dexamethasone 3000 nM): A (A = 0.0001 to <0.3) | combination index (CI) (DOHH2; Compound 1 33.33333 nM + Dexamethasone 1.371742 nM): B (B = 0.3 to <0.5) | combination index (CI) (DOHH2; Compound 1 33.33333 nM + Dexamethasone 4.115226 nM): B (B = 0.3 to <0.5) | combination index (CI) (DOHH2; Compound 1 33.33333 nM + Dexamethasone 12.34568 nM): D (D = 0.7 to <1) | combination index (CI) (DOHH2; Compound 1 33.33333 nM + Dexamethasone 37.03704 nM): A (A = 0.0001 to <0.3) | combination index (CI) (DOHH2; Compound 1 33.33333 nM + Dexamethasone 111.1111 nM): A (A = 0.0001 to <0.3) | combination index (CI) (DOHH2; Compound 1 33.33333 nM + Dexamethasone 333.3333 nM): A (A = 0.0001 to <0.3) | combination index (CI) (DOHH2; Compound 1 33.33333 nM + Dexamethasone 1000 nM): A (A = 0.0001 to <0.3) | combination index (CI) (DOHH2; Compound 1 33.33333 nM + Dexamethasone 3000 nM): A (A = 0.0001 to <0.3) | combination index (CI) (DOHH2; Compound 1 100 nM + Dexamethasone 1.371742 nM): B (B = 0.3 to <0.5) | combination index (CI) (DOHH2; Compound 1 100 nM + Dexamethasone 4.115226 nM): A (A = 0.0001 to <0.3) | combination index (CI) (DOHH2; Compound 1 100 nM + Dexamethasone 12.34568 nM): C (C = 0.5 to <0.7) | combination index (CI) (DOHH2; Compound 1 100 nM + Dexamethasone 37.03704 nM): A (A = 0.0001 to <0.3) | combination index (CI) (DOHH2; Compound 1 100 nM + Dexamethasone 111.1111 nM): A (A = 0.0001 to <0.3) | combination index (CI) (DOHH2; Compound 1 100 nM + Dexamethasone 333.3333 nM): A (A = 0.0001 to <0.3) | combination index (CI) (DOHH2; Compound 1 100 nM + Dexamethasone 1000 nM): A (A = 0.0001 to <0.3) | combination index (CI) (DOHH2; Compound 1 100 nM + Dexamethasone 3000 nM): A (A = 0.0001 to <0.3) | combination index (CI) (DOHH2; Compound 1 300 nM + Dexamethasone 1.371742 nM): B (B = 0.3 to <0.5) | combination index (CI) (DOHH2; Compound 1 300 nM + Dexamethasone 4.115226 nM): B (B = 0.3 to <0.5) | combination index (CI) (DOHH2; Compound 1 300 nM + Dexamethasone 12.34568 nM): A (A = 0.0001 to <0.3) | combination index (CI) (DOHH2; Compound 1 300 nM + Dexamethasone 37.03704 nM): A (A = 0.0001 to <0.3) | combination index (CI) (DOHH2; Compound 1 300 nM + Dexamethasone 111.1111 nM): A (A = 0.0001 to <0.3) | combination index (CI) (DOHH2; Compound 1 300 nM + Dexamethasone 333.3333 nM): A (A = 0.0001 to <0.3) | combination index (CI) (DOHH2; Compound 1 300 nM + Dexamethasone 1000 nM): A (A = 0.0001 to <0.3) | combination index (CI) (DOHH2; Compound 1 300 nM + Dexamethasone 3000 nM): A (A = 0.0001 to <0.3) | CI50 growth inhibition (KARPAS-422; combination with Dexamethasone): U (U=0.7 to <1) | CI50 inhibition (KARPAS-422; combination with Dexamethasone): T (T=0.5 to <0.7) | Synergy Score growth inhibition (KARPAS-422; combination with Dexamethasone): A3 (A3=>3) | Synergy Score inhibition (KARPAS-422; combination with Dexamethasone): A2 (A2=1 to <3) | CI50 growth inhibition (KARPAS-422; combination with LEE011): S (S=0.01 to <0.5) | CI50 inhibition (KARPAS-422; combination with LEE011): S (S=0.01 to <0.5) | Synergy Score growth inhibition (KARPAS-422; combination with LEE011): A2 (A2=1 to <3) | Synergy Score inhibition (KARPAS-422; combination with LEE011): A2 (A2=1 to <3) | CI50 growth inhibition (KARPAS-422; combination with PCI-32765): S (S=0.01 to <0.5) | CI50 inhibition (KARPAS-422; combination with PCI-32765): S (S=0.01 to <0.5) | Synergy Score growth inhibition (KARPAS-422; combination with PCI-32765): A3 (A3=>3) | Synergy Score inhibition (KARPAS-422; combination with PCI-32765): A2 (A2=1 to <3) | CI50 growth inhibition (KARPAS-422; combination with PD-0332991): S (S=0.01 to <0.5) | CI50 inhibition (KARPAS-422; combination with PD-0332991): S (S=0.01 to <0.5) | Synergy Score growth inhibition (KARPAS-422; combination with PD-0332991): A2 (A2=1 to <3) | Synergy Score inhibition (KARPAS-422; combination with PD-0332991): A2 (A2=1 to <3) | CI50 growth inhibition (SU-DHL-4-epst; combination with Dexamethasone): S (S=0.01 to <0.5) | CI50 inhibition (SU-DHL-4-epst; combination with Dexamethasone): S (S=0.01 to <0.5) | Synergy Score growth inhibition (SU-DHL-4-epst; combination with Dexamethasone): A3 (A3=>3) | Synergy Score inhibition (SU-DHL-4-epst; combination with Dexamethasone): A3 (A3=>3) | CI50 growth inhibition (SU-DHL-4-epst; combination with LEE011): S (S=0.01 to <0.5) | CI50 inhibition (SU-DHL-4-epst; combination with LEE011): S (S=0.01 to <0.5) | Synergy Score growth inhibition (SU-DHL-4-epst; combination with LEE011): A2 (A2=1 to <3) | Synergy Score inhibition (SU-DHL-4-epst; combination with LEE011): A2 (A2=1 to <3) | CI50 growth inhibition (SU-DHL-4-epst; combination with PCI-32765): S (S=0.01 to <0.5)
